Laboratory results reported in article PMC4418665, “Cyclization of the Urokinase Receptor-Derived Ser-Arg-Ser-Arg-Tyr Peptide Generates a Potent Inhibitor of Trans-Endothelial Migration of Monocytes” (PLoS ONE, 2015).
Peptide text beside a SMILES is read from it.

Biological target: T1, FPR1 (Homo sapiens, UniProt P21462)
T1 sequence (P21462 1-350): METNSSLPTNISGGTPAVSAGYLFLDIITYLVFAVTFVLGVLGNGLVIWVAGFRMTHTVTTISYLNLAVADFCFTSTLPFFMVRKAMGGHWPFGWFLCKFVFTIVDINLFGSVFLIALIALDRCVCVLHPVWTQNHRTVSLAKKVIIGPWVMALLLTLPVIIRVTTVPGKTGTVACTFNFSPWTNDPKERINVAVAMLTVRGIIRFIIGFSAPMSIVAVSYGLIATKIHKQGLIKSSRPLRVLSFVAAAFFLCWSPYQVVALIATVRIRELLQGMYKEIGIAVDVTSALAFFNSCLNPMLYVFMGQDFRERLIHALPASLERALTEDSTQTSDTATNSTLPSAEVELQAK
Assay: Agonist-induced FPR1 internalization at 37°C, fluorescence microscopy, THP-1 cells
Type: cell-based
Parameters: host or cells: THP-1 human monocytic leukemia cells
Conditions: excess (100 nM) unlabelled peptide 30 min at 37°C, then 10 nM FITC-fMLF 30 min at 37°C
Description: Once documented that both SRSRY and [SRSRY] peptides compete with fMLF for binding to FPR1, we investigated the effect of [SRSRY] on the motility of monocytes. Preliminarily, we assessed whether [SRSRY] is a ligand of FPR1 on monocyte cell surface. […] (Fig 3A). When binding experiments were performed at 37°C, FPR1 appeared mainly localized within the cytoplasm, adjacent but outside the nucleus of THP-1 cells.
Fig 3 The peptide [SRSRY] binds to FPR1 on THP-1 cell surface. A. THP-1 cells (1.5 x10^6 cells/sample) were pre-incubated with diluents (None), 100 nM fMLF, 100 nM SRSRY or 100 nM [SRSRY] peptides for 60 minutes at 4°C, then exposed to 10 nM N-formyl-Nle-Leu-Phe-Nle-Tyr-Lys-fluorescein (FITC-fMLF) for additional 60 minutes at 4°C. Fluorimetric measurement of cell-associated fluorescence was assed using 485 nm excitation and 535 nm emission filters. Data are expressed as a percentage of the fluorescence associated to THP-1 cells exposed to FITC-fMLF alone (None = 100%) and represent a mean ± SD from triplicates. *Statistical significance (t-test) against None with p<0.001. B. THP-1 cells incubated with diluents (None), 100 nM fMLF, 100 nM SRSRY or 100 nM [SRSRY] peptides for 30 minutes at 37°C and exposed to 10 nM FITC-fMLF for additional 30 minutes at 37°C. Scale bar: 5 μm. Original magnifications: 630x. […]

- internalization of fluorescent agonist in THP-1 cells: dramatically reduced
SMILES: N=C(N)NCCC[C@@H]1NC(=O)[C@H](CO)NC(=O)[C@H](Cc2ccc(O)cc2)NC(=O)[C@H](CCCNC(=N)N)NC(=O)[C@H](CO)NC1=O [[SRSRY], [Ser-Arg-Ser-Arg-Tyr]] (cyclo(RSRYS))
